Assay [1] deals with Proto-oncogene tyrosine-protein kinase receptor Ret (Homo sapiens, UniProt P07949). The note with it: at 10 µM.
In assay [2] the target is T1, Serine/threonine-protein kinase DCLK2 (Homo sapiens) (UniProt Q8N568).
T1 sequence (whole entry): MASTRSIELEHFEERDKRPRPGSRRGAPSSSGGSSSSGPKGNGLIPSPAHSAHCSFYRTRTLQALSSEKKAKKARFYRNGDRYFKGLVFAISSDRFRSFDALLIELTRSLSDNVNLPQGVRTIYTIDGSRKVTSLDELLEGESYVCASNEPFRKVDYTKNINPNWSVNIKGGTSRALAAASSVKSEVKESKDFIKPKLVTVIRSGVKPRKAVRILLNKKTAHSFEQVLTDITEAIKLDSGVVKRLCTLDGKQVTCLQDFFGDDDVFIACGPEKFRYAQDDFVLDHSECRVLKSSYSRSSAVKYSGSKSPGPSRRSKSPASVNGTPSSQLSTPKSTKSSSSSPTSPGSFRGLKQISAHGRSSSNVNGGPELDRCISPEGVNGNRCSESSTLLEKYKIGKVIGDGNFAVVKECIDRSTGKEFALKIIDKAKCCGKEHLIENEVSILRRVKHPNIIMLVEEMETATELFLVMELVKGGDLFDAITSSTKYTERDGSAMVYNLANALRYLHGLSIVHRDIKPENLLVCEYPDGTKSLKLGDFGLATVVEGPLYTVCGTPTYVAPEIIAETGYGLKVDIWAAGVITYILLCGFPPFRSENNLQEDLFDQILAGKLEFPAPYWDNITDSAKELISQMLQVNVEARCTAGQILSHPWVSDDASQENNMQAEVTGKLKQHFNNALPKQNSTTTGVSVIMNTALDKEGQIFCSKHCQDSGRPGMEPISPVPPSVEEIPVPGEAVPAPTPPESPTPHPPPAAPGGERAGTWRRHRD
To be noted: at 10 µM.

Assay [3] addresses T2, Peripheral plasma membrane protein CASK (Homo sapiens) (UniProt O14936).
T2 sequence (whole entry): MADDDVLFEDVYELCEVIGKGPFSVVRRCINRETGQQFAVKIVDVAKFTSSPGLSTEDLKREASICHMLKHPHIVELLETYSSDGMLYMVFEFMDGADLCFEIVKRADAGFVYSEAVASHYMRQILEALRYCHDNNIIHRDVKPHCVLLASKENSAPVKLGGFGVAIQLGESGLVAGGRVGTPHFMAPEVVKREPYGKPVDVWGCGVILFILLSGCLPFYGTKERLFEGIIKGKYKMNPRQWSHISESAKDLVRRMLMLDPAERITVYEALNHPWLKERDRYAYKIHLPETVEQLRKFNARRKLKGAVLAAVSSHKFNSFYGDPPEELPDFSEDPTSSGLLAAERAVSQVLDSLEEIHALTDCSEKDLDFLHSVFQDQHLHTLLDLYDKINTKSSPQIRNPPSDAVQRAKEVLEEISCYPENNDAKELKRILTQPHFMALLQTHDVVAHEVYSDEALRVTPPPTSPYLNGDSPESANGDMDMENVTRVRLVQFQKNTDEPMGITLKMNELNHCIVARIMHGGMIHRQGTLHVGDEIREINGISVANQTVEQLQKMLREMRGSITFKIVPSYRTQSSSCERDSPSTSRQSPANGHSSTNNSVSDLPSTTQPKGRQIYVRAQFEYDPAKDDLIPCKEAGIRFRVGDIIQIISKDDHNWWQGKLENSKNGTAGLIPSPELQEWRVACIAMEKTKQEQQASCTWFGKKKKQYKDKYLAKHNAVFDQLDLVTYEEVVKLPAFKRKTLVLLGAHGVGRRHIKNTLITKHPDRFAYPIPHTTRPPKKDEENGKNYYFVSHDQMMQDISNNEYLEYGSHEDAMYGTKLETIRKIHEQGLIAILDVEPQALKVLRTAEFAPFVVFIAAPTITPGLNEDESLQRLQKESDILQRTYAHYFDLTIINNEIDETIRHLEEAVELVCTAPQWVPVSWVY
The assay can be described thus: Selectivity interaction (KinomeScan (DiscoverX)) EUB0000655a CASK. The note with it: at 10 µM.

The nature of assay [4]: Selectivity interaction (KinomeScan (DiscoverX)) EUB0000655a CDPK1. The note with it: at 10 µM.
Assay [5] deals with T3, Serine/threonine-protein kinase BRSK2 (Homo sapiens) (UniProt Q8IWQ3).
T3 sequence (whole entry): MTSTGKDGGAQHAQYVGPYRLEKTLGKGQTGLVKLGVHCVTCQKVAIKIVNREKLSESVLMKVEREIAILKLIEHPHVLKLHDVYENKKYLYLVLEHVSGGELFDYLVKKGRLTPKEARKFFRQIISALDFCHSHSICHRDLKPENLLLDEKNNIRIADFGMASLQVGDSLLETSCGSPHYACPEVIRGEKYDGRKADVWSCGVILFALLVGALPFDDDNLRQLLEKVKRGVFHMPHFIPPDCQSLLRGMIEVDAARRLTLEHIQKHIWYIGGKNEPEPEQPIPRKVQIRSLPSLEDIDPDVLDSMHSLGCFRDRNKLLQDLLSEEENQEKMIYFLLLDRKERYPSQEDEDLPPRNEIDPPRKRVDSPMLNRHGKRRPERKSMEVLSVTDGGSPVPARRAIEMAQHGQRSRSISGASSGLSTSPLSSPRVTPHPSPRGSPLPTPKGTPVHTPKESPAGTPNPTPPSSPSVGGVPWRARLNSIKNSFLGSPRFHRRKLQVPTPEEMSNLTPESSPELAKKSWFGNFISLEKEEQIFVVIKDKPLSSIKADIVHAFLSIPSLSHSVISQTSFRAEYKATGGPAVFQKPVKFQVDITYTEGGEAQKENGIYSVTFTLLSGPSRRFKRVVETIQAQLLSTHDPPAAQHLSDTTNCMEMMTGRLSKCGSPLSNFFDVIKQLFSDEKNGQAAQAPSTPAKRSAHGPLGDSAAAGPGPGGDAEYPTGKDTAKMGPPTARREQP
The assay can be described thus: Selectivity interaction (KinomeScan (DiscoverX)) EUB0001079a BRSK2. To be noted: at 1 µM.

The next assay has as its target Aurora kinase B (Homo sapiens, UniProt Q96GD4). The assay is described as follows: Selectivity interaction (Panel of kinases, GPCRs, ion channels and transporters (enzymatic assay)) EUB0000266bCl AURKB.
Assay [6] concerns the target Serine/threonine-protein kinase 24 (Homo sapiens) (UniProt Q9Y6E0). The assay can be described thus: Selectivity interaction (ActivX KiNativ screen (kinase selectivity in THP-1 cell lysates)) EUB0000639a STK24. Format: subcellular. To be noted: lysate, at 0.01 µM.
Assay [7] concerns the target Rho-associated protein kinase 2 (Homo sapiens, UniProt O75116). The assay is described as follows: Selectivity interaction (Upstate Kinase Profiler service (Millipore)) EUB0000056c ROCK2. To be noted: at 1 µM.

Aurora kinase B, sequence (Q96GD4 whole entry): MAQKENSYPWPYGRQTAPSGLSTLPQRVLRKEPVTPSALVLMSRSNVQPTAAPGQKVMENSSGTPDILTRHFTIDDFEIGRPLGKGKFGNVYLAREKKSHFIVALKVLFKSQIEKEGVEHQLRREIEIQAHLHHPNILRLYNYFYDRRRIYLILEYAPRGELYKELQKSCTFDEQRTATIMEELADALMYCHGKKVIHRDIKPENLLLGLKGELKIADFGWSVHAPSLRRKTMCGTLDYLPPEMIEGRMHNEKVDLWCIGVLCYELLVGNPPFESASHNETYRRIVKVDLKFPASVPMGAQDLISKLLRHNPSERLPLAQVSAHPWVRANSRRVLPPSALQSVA
Proto-oncogene tyrosine-protein kinase receptor Ret, sequence (P07949 whole entry): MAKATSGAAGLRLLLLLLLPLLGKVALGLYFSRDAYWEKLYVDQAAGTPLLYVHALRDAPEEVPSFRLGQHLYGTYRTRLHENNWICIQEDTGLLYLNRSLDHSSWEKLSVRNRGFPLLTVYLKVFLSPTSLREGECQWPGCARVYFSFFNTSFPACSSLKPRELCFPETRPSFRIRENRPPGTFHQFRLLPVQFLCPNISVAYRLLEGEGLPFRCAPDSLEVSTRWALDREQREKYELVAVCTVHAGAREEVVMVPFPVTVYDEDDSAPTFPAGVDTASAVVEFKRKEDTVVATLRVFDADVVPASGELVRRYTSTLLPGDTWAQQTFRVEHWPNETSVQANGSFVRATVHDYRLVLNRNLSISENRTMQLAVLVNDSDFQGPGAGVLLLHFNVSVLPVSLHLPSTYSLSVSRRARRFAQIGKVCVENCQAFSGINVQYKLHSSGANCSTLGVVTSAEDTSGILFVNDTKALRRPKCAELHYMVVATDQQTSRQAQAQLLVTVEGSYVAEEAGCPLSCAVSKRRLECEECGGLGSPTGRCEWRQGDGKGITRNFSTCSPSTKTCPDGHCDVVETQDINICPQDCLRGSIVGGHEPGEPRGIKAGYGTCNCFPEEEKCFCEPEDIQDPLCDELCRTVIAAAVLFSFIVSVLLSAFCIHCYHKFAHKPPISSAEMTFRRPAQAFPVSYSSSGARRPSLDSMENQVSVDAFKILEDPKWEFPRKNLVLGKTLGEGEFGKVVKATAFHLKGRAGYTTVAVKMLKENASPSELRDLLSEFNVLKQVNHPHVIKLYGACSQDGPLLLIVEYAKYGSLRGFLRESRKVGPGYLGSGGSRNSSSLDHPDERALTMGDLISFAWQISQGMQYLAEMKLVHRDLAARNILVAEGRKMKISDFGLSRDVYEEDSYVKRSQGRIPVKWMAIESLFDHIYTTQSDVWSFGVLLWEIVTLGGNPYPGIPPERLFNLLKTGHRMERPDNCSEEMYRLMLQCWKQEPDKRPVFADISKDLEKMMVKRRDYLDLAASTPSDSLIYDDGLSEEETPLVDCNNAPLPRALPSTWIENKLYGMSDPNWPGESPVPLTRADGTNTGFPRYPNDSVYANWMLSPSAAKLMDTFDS
Serine/threonine-protein kinase 24 (Homo sapiens), sequence (Q9Y6E0 whole entry, looked up): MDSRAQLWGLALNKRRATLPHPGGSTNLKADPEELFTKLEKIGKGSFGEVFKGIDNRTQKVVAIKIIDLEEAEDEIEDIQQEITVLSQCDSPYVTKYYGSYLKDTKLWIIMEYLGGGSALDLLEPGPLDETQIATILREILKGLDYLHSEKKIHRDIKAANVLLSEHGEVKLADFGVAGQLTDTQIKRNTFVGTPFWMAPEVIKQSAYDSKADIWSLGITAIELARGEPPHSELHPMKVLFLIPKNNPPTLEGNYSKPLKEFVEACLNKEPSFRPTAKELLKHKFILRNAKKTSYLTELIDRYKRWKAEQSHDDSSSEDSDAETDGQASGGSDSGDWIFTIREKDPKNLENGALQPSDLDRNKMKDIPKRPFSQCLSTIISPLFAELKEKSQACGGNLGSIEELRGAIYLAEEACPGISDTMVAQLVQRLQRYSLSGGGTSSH
Rho-associated protein kinase 2, sequence (O75116 whole entry, looked up): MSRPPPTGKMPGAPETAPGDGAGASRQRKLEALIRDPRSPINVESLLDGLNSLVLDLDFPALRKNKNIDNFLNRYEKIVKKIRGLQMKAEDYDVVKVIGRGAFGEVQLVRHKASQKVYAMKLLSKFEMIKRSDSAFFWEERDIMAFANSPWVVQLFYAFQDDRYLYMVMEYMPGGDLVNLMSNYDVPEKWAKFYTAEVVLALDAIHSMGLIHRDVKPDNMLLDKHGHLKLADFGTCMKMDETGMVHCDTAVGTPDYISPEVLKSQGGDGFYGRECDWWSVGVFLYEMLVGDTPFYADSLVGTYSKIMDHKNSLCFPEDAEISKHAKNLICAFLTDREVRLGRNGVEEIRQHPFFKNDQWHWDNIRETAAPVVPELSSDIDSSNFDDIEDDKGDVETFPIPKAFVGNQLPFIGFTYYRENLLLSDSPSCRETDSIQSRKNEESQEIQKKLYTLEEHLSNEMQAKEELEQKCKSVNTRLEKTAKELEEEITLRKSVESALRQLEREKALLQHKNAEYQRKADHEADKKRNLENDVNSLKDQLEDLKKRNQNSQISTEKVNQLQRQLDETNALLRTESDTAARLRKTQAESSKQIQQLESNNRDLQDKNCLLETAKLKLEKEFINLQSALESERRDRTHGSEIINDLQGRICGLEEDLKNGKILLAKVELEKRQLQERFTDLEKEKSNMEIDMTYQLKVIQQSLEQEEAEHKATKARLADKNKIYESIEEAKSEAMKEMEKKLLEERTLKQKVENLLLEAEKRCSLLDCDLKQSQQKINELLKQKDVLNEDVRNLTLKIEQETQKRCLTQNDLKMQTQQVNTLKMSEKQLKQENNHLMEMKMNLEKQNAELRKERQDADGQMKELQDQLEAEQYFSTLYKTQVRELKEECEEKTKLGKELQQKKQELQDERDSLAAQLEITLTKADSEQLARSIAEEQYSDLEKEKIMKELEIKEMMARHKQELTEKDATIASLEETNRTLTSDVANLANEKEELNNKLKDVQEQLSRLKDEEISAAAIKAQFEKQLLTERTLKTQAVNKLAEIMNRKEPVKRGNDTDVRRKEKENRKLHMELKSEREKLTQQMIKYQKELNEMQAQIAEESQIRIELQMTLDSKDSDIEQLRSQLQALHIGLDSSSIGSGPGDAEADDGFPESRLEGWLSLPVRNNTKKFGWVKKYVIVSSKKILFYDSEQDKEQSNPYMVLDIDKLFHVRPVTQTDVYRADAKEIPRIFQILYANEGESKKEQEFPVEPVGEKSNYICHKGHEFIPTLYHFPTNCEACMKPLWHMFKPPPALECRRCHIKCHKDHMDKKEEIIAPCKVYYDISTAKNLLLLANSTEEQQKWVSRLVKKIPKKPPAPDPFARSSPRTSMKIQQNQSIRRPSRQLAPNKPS

`Cc1cc([C@@H](C)Nc2ccccc2C(=O)O)c2nc(N3CCOCC3)cc(=O)n2c1` [AZD-6482]: the % of control in assay [1] and in assay [2] was 100% in each case. For the molecule `CN(C)CCOc1ccc(-c2nc(-c3ccncc3)c(-c3ccc4c(c3)CC/C4=N\O)[nH]2)cc1`, the % of control in assay [3] was 82%; in assay [4], 15%. `Nc1cnc(N2CCc3cc(S(=O)(=O)Nc4c(F)cc(Cl)cc4F)cc(N4CCCC4=O)c32)nc1` [TP-020n]: the % of control in assay [5] turned out to be 80%. In the case of `CCn1c(-c2nc3cc(C(=O)N4CCCC(N)C4)ccc3n2C)cc2ccccc21` (stereo not drawn), the pXC50 on Aurora kinase B is less than 4.5 M.

Turning to `CC[C@@H]1[C@H](F)C(=O)N[C@@H]1COc1nccc2cc(C(N)=O)c(OC)cc12` [ZIMLOVISERTIB], the % of inhibition in assay [6] came out at 3.8%. Regarding `Cc1ccc(-c2ccc3c(ccc4sc5c(c43)NC[C@@H](C)NC5=O)n2)cn1`, the % of inhibition in assay [7] is -9%.

Values taken from ChEMBL document CHEMBL5465560, “Selectivity Literature for EUbOPEN Chemogenomic Library” (2024).
